Results: US10815210B2, “Benzocyclobutane derivatives useful as dual SGLT1 / SGLT2 modulators” (Janssen Pharmaceutica NV, priority 2016, dated 2020)

How the values were obtained:
[1] = molecular target: T1, human SGLT2 (Homo sapiens, UniProt P31639); assay: SGLT2 assay: Na-dependent 14C-AMG uptake in CHO-K1 cells stably expressing human SGLT2; type: cell-based; conditions: 500 μM AMG, 2 hours at 37° C.
T1 construct: expressed in transfected cells; host or cells: CHO-K1
T1 sequence (P31639 1-672): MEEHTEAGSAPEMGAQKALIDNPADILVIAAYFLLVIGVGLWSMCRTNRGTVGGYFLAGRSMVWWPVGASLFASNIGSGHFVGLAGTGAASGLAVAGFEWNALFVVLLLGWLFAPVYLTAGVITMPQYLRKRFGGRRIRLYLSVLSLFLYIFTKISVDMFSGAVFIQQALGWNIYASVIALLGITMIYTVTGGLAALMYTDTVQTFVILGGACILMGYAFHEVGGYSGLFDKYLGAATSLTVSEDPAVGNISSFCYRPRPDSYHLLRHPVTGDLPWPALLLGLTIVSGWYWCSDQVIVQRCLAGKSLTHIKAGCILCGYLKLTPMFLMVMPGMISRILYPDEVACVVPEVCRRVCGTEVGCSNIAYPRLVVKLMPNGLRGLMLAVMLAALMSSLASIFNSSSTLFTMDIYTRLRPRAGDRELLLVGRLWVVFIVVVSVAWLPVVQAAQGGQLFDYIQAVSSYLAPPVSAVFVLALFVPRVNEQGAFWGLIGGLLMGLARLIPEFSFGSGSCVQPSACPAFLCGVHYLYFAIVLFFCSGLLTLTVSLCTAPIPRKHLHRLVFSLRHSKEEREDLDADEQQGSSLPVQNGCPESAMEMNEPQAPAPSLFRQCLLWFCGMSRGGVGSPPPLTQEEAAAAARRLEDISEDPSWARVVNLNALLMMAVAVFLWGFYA
Protocol: (§1) SGLT1 and SGLT2 were cloned in form of cDNA from human small intestine (Genbank M24847), and from human kidney (Genbank M95549), respectively. Subsequently, each full cDNA was subcloned into pcDNA with each construct's integrity verified through follow-on sequencing. To generate CHO-K1 cells that stably express human SGLT1 or human SGLT2, CHO-K1 cells were transfected using DMRIE-C reagent (Life Technologies, Gaithersburg, Md.). Transfected cells were then selected in the presence of 500 μg/ml of the Geneticin (G418 Cellgro Catalog No. 30234-CI)
(§2) Individual clones were then characterized using the following cell-based assay for sodium-dependent glucose transport:
(§3) Inhibition of SGLT1 and SGLT2 activity was assessed in CHO K1 cells stably expressing either human SGLT1 or SGLT2, using the SGLT specific glucose analog methyl-glucopyranoside (Sigma Catalog No. M-9376). Cells were plated (45,000 cells/well) in white wall 96-well plates (COSTAR, Cat#3903) for 24 hours in growth medium, then a final concentration of 10 mM Na-Butyrate (ALDRICH Cat#30341-0) was added. The cells were incubated for 24 hours. On the day of the assay, cells were rinsed and treated with test compounds (at concentrations of 0.001 μM to 10 μM) in assay buffer (50 mM HEPES, 20 mM Tris base, 5 mM KCl, 1 mM MgCl2, 1 mM CaCl2 and 137 mM NaCl, pH 7.4) for 10 minutes. Cells were then incubated with ^14C-a-methyl-d-glucopyranoside (AMG, Amersham Catalog No. CFB 76), using 0.07 μCi per well in 500 μM AMG final concentration. The cells were incubated for 2 hours at 37° C. with 5% CO2 and washed two times with ice-cold Phosphate Buffer Solution (Cellgro Catalog No. 21030-CV). The cells were then solubilized by adding 60 μl of MICROSCINT™20 and the Na-dependent ^14C-AMG uptake was quantified by measuring radioactivity. Plates were counted in a TopCount (Packard, Meriden, Conn.)

[2] = molecular target: T2, human SGLT1 (Homo sapiens, UniProt P13866); assay: SGLT1 assay: Na-dependent 14C-AMG uptake in CHO-K1 cells stably expressing human SGLT1; type: cell-based; conditions: 500 μM AMG, 2 hours at 37° C.
T2 construct: expressed in transfected cells; host or cells: CHO-K1
T2 sequence (P13866 1-664): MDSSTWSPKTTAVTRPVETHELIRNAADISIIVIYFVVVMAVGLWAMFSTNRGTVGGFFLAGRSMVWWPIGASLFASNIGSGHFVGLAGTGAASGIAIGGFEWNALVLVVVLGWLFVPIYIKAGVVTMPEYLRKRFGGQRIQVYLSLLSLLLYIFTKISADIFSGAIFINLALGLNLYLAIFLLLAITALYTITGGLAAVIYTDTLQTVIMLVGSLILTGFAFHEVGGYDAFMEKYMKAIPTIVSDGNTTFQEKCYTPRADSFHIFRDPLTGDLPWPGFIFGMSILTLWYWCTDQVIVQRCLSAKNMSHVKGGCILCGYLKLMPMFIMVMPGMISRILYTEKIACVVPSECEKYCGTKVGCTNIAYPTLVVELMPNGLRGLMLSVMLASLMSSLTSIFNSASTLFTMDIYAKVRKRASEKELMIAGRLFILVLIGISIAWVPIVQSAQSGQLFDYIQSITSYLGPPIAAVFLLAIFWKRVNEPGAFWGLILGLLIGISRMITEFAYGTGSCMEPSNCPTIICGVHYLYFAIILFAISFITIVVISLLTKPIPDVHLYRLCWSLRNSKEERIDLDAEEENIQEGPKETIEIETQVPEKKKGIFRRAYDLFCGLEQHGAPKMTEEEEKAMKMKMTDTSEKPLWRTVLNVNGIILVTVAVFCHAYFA
Protocol: as §1, §2, §3

Row | SMILES | IC50 [1] [nM] | IC50 [2] [nM]
1 | [2H]C([2H])(c1ccc2c(c1)CC2)c1cc([C@@H]2O[C@H](CO)[C@@H](O)[C@H](O)[C@H]2O)c(O)cc1C (single isomer, unassigned) [Compound 52] | 1 | 4
2 | [2H]C([2H])(c1ccc2c(c1)CC2)c1cc([C@@H]2O[C@H](CO)[C@@H](O)[C@H](O)[C@H]2O)c(OC)cc1OC (single isomer, unassigned) [Compound 59] | 3 | 140
3 | [2H]C1([2H])Cc2ccc(Cc3cc([C@@H]4O[C@H](CO)[C@@H](O)[C@H](O)[C@H]4O)c(O)cc3C)cc21 (single isomer, unassigned) [Compound 61] | 4 | 7
4 | [2H]C1([2H])Cc2ccc(Cc3cc([C@@H]4O[C@H](CO)[C@@H](O)[C@H](O)[C@H]4O)c(OC)cc3OC)cc21 (single isomer, unassigned) [Compound 68] | 2 | 41
5 | [2H]C1([2H])Cc2cc(Cc3cc([C@@H]4O[C@H](CO)[C@@H](O)[C@H](O)[C@H]4O)c(OC)cc3OC)ccc21 (single isomer, unassigned) [Compound 84] | 2 | 63
6 | OC[C@H]1O[C@@H](c2cc(Cc3ccc4c(c3)CC4)c(Cl)cc2O)[C@H](O)[C@@H](O)[C@@H]1O [Compound 8, (2S,3R,4R,5S,6R)-2-(5-(bicyclo[4.2.0]octa-1(6),2,4-trien-3-ylmethyl)-4-chloro-2-hydroxyphenyl)-6-(hydroxymethyl)oxane-3,4,5-triol] | – | 5
7 | [2H]C([2H])(c1ccc2c(c1)CC2)c1cc([C@@H]2O[C@H](CO)[C@@H](O)[C@H](O)[C@H]2O)c(O)cc1Cl [Compound 55, (2S,3R,4R,S,6R)-2-(5-[bicyclo[4.2.0]octa-1(6),2,4-trien-3-yl(dideuterium)methyl]-4-chloro-2-hydroxyphenyl)-6-(hydroxymethyl)oxane-3,4,5-triol] | – | 7
8 | [2H]C([2H])([2H])Oc1cc(C)c(Cc2ccc3c(c2)CC3)cc1[C@@H]1O[C@H](CO)[C@@H](O)[C@H](O)[C@H]1O [Compound 110] | – | 15
9 | [2H]C([2H])([2H])Oc1cc(CC)c(Cc2ccc3c(c2)CC3)cc1[C@@H]1O[C@H](CO)[C@@H](O)[C@H](O)[C@H]1O [Compound 111] | – | 13
10 | [2H]C([2H])([2H])Oc1cc(C)c(C([2H])([2H])c2ccc3c(c2)CC3)cc1[C@@H]1O[C@H](CO)[C@@H](O)[C@H](O)[C@H]1O [Compound 119] | – | 41

Second part, the compound after the results:

Row | IC50 [1] [nM] | IC50 [2] [nM] | SMILES
11 | 1 | 63 | [2H]C([2H])(c1ccc2c(c1)CC2)c1cc([C@@H]2O[C@H](CO)[C@@H](O)[C@H](O)[C@H]2O)ccc1Cl (single isomer, unassigned) [Compound 54]
12 | 6 | 44 | [2H]C([2H])(c1ccc2c(c1)CC2)c1cc([C@@H]2O[C@H](CO)[C@@H](O)[C@H](O)[C@H]2O)ccc1OC (single isomer, unassigned) [Compound 57]
13 | 9 | 168 | [2H]C1([2H])Cc2ccc(Cc3cc([C@@H]4O[C@H](CO)[C@@H](O)[C@H](O)[C@H]4O)ccc3Cl)cc21 (single isomer, unassigned) [Compound 62]
14 | 4 | 93 | [2H]C1([2H])Cc2ccc(Cc3cc([C@@H]4O[C@H](CO)[C@@H](O)[C@H](O)[C@H]4O)ccc3OC)cc21 (single isomer, unassigned) [Compound 64]
15 | 1 | 62 | [2H]C1([2H])Cc2cc(Cc3cc([C@@H]4O[C@H](CO)[C@@H](O)[C@H](O)[C@H]4O)ccc3Cl)ccc21 (single isomer, unassigned) [Compound 81]
16 | 8 | 30 | [2H]C1([2H])Cc2cc(Cc3cc([C@@H]4O[C@H](CO)[C@@H](O)[C@H](O)[C@H]4O)ccc3OC)ccc21 (single isomer, unassigned) [Compound 82]
17 | 2 | 11 | [2H]c1c(C)c(Cc2ccc3c(c2)CC3)cc([C@@H]2O[C@H](CO)[C@@H](O)[C@H](O)[C@H]2O)c1O (single isomer, unassigned) [Compound 121]
18 | 1 | 33 | Cc1ccc([C@@H]2O[C@H](CO)[C@@H](O)[C@H](O)[C@H]2O)cc1Cc1ccc2c(c1)CC2 [Compound 1, (2S,3R,4R,5S,6R)-2-(3-((1,2-dihydrocyclobutabenzen-4-yl)methyl)-4-methylphenyl)-6-(hydroxymethyl)-tetrahydro-2H-pyran-3,4,5-triol]
19 | 1 | 45 | OC[C@H]1O[C@@H](c2ccc(Cl)c(Cc3ccc4c(c3)CC4)c2)[C@H](O)[C@@H](O)[C@@H]1O [Compound 2, (2S,3R,4R,5S,6R)-2-(4-chloro-3-((1,2-dihydrocyclobutabenzen-4-yl)methyl)phenyl)-6-(hydroxymethyl)-tetrahydro-2H-pyran-3,4,5-triol]
20 | 3 | 39 | COc1ccc([C@@H]2O[C@H](CO)[C@@H](O)[C@H](O)[C@H]2O)cc1Cc1ccc2c(c1)CC2 [Compound 3, (2S,3R,4R,5S,6R)-2-(3-((1,2-dihydrocyclobutabenzen-4-yl)methyl)-4-methoxyphenyl)-6-(hydroxymethyl)-tetrahydro-2H-pyran-3,4,5-triol]
21 | 3 | 18 | CCc1ccc([C@@H]2O[C@H](CO)[C@@H](O)[C@H](O)[C@H]2O)cc1Cc1ccc2c(c1)CC2 [Compound 4, (2S,3R,4R,5S,6R)-2-(3-((1,2-dihydrocyclobutabenzen-4-yl)methyl)-4-ethylphenyl)-6-(hydroxymethyl)-tetrahydro-2H-pyran-3,4,5-triol]
22 | 5 | 32 | OC[C@H]1O[C@@H](c2ccc(C3CC3)c(Cc3ccc4c(c3)CC4)c2)[C@H](O)[C@@H](O)[C@@H]1O [Compound 5, (2S,3R,4R,5S,6R)-2-(4-cyclopropyl-3-((1,2-dihydrocyclobutabenzen-4-yl)methyl)phenyl)-6-(hydroxymethyl)-tetrahydro-2H-pyran-3,4,5-triol]
23 | 1 | 4 | Cc1cc(O)c([C@@H]2O[C@H](CO)[C@@H](O)[C@H](O)[C@H]2O)cc1Cc1ccc2c(c1)CC2 [Compound 6, (2S,3R,4R,5S,6R)-2-(5-((1,2-dihydrocyclobutabenzen-4-yl)methyl)-2-hydroxy-4-methylphenyl)-6-(hydroxymethyl)-tetrahydro-2H-pyran-3,4,5-triol]
24 | 1 | 48 | COc1cc(C)c(Cc2ccc3c(c2)CC3)cc1[C@@H]1O[C@H](CO)[C@@H](O)[C@H](O)[C@H]1O [Compound 7, (2S,3R,4R,5S,6R)-2-(5-((1,2-dihydrocyclobutabenzen-4-yl)methyl)-2-methoxy-4-methylphenyl)-6-(hydroxymethyl)-tetrahydro-2H-pyran-3,4,5-triol]
